Paper PMC11263240 (Pharmaceutical Research, 2024)
Counter-ions that a name gives are not always drawn. Like-named read-outs stand apart in the source and are kept apart here. Blank lines part the entries; values can stand above or below the compound they belong to.

Legend:
Pgp [1] = conditions: cited from earlier work
Pgp [2] = conditions: read-out: affinity to Pgp (KD); cited from earlier work
Pgp [3] = experiment: Inhibition of Pgp efflux at the CNS by tariquidar in vivo; set-up: species or system rat; conditions: tariquidar 7.5 mg/kg IV, 30 min before ondansetron 10 mg/kg IV, wild type rats
Protocol: (§1) Animals previously used in the plasma pharmacokinetics study were included following a two-week washout period; and additional animals were added to achieve n = 4–6 per time point. […] Groups of rats were sacrificed at 0.16, 0.25, 0.5, 1, 1.5, 2, and 2.5 h under isoflurane anesthesia, and terminal samples were collected including plasma, brain, spinal cord, and cerebrospinal fluid from cisterna magna (CSF) and stored at −20°C.
(§2) The whole dataset included mean ondansetron profiles of OT-M and OT-F in plasma, brain, spinal cord, and CSF obtained in this study and previous data for male and female WT and KO animals. […] Several functions to describe tariquidar-induced Pgp inhibition were considered. […] The final model included a separate term for describing Pgp function in OT groups (kPgp,TRQ). Other parameters were shared across WT, KO, and OT models. All model parameters were estimated. A separate set of parameters was estimated for female cohorts (WT-F, KO-F, OT-F) using the same final model structure.

[4] = Tariquidar concentrations in plasma, brain, spinal cord and CSF after IV administration; assay type: in vivo, rat; conditions: 7.5 mg/kg IV; for half-life: Sprague Dawley, rat, plasma
Protocol: as §1
Agilent 1260 Infinity HPLC equipped with a photodiode array detector was used (Agilent, Santa Clara, CA, USA) in this work.
Data analysis was performed separately for male (OT-M) and female (OT-F) rat groups.

[5] = assay type: in vivo
Pgp [6] = conditions: 30 min after intravenous injection of tariquidar doses above 6 mg/kg; cited from earlier work
[7] = ondansetron alone 10 mg/kg IV, cited from earlier work
[8] = set-up: method as in PMID 15275776; conditions: cited from earlier work
[9] = CNS disposition of ondansetron (brain, spinal cord, CSF) after IV co-administration with tariquidar; assay type: in vivo, rat; conditions: ondansetron 10 mg/kg + tariquidar 7.5 mg/kg IV
Protocol: as §1
Agilent 1260 Infinity HPLC equipped with a photodiode array detector was used (Agilent, Santa Clara, CA, USA) in this work. […] Inter-day and intra-day accuracy and precision of the assay were within 15%.
(§3) A standard noncompartmental analysis was performed using average plasma concentration–time data (samples obtained from sequential and terminal experiments were combined) in Phoenix WinNonlin version 8.1 (Certara, Princeton, NJ). For plasma, the area under the plasma concentration–time curve from time zero to infinity (AUCplasma), systemic clearance (CL), volume of distribution at steady state (Vd,ss), half-life (t1/2,plasma), and mean residence time (MRT) were calculated. For brain, spinal cord, and CSF the area under the tissue concentration–time curve (AUCtissue) and half-life in tissue (t1/2,tissue) were reported.
However, since the AUC values were based on terminal samples, no statistical comparison among the groups could be performed.

[10] = Noncompartmental plasma pharmacokinetics of ondansetron after IV co-administration with tariquidar; assay type: in vivo, rat; conditions: ondansetron 10 mg/kg with tariquidar, wild type rats vs wild-type (and Pgp KO) rats
Protocol: The study was conducted under the protocol approved by the Institutional Animal Care and Use Committee at Rutgers University. Wild-type Sprague Dawley rats (males of 10–12 weeks, weighing 300–350 g and females of 12–14 weeks, weighing 250–280 g) were purchased from Horizon Discovery (previously Sage Labs Inc., Boyertown, PA). Animals were housed in a vivarium under controlled temperatures and 12/12 h dark/light cycle with free access to food and water. Right jugular vein was cannulated to allow for accurate intravenous dosing using polyethylene tubing (PE-50, Braintree Scientific, Braintree, MA). The surgery was performed under light isoflurane anesthesia, and after that animals were allowed to recover for 24 h. Intradermal bupivacaine and subcutaneous meloxicam were provided as analgesia. […]
as §3, with “For brain, spinal cord, and CSF the area under the tissue concentration–time curve (AUCtissue) and half-life in tissue (t1/2,tissue) were reported.” left out

[11] = Semi-physiological pharmacokinetic model of ondansetron systemic and CNS disposition (estimated parameters); assay type: in vivo, rat; conditions: for k12 Distribution rate constant to peripheral distribution compartment / k13 Distribution rate constant to brain compartment / k14 Distribution rate constant to spinal cord compartment / k15 Distribution rate constant to CSF compartment / k21 Distribution rate constant from peripheral distribution compartment / k31 Distribution rate constant from brain compartment / k35=45 Rate constant for brain/spinal cord and CSF exchange / k41 Distribution rate constant from spinal cord compartment / k51 Distribution rate constant from CSF compartment / k53=54 Rate constant for brain/spinal cord and CSF exchange: model estimate shared across WT, KO, OT; for kPgp,TRQ Rate constant for Pgp-mediated efflux from the CNS for OT animals / kPgp Rate constant for Pgp-mediated efflux from the CNS: model estimate; for kPgp,TRQ Rate constant for Pgp-mediated efflux from the CNS for OT animals: OT group (with tariquidar); for kPgp Rate constant for Pgp-mediated efflux from the CNS: wild type animals, ondansetron alone; for Vd / k el: rat, plasma, brain, spinal cord, CSF, iv, 10 mg/kg
Protocol: Interconnectivity of CNS compartments followed animal physiology (A3 - brain, A4 – spinal cord, A5 - CSF), and previously published CNS model were consulted. The volume of the brain (Vbrain) was fixed to a previously determined value of 1.8 mL which was also in agreement with the brain weight reported before. The volume of the CSF compartment (VCSF) was fixed to 0.25 mL [25]. The volume of the spinal cord (Vspinal) was measured and reported in our previous study and was fixed to 0.6 mL. First order rate constant were used to describe a bidirectional passive permeability between the central disposition compartment (with the volume V1) and various CNS compartments (k13, k31, k14, k41, k15, k51) and distributional terms between CNS compartments (k35, k53, k45, k54). Pgp efflux at the BBB was described using a first-order term (kpgp) and was included for wild type animals only; the term was set to zero in KO rats. The following differential Eqs. (1–5) were used: 1 dA1/dt=k21·A2+k31·A3+k41·A4+k51·A5-kel+k12+k13+k14+k15·A1+kPgp·A3+kPgp·A4 2 dA2/dt=k12·A1-k21·A2 3 dA3/dt=k13·A1+k53·A5-k31+k35+kPgp·A3 4 dA4/dt=k14·A1+k54·A5-k41+k45+kPgp·A4 5 dA5/dt=k15·A1+k35·A3+k45·A4-k51+k53+k54·A5
as §2
R (version 3.31) and Rstudio (version 1.2.5001, Boston, MA, USA) with Ubiquity package were used for model development as described before.

Structure (SMILES): COc1cc2c(cc1OC)CN(CCc1ccc(NC(=O)c3cc(OC)c(OC)cc3NC(=O)c3cnc4ccccc4c3)cc1)CC2 [Tariquidar]
inhibitory activity (IC50) (Pgp [1]): nM-range
Kd (Pgp [2]): 5.1 nM
inhibition of Pgp efflux of ondansetron in the brain and spinal cord (Pgp [3]): almost complete inhibition
half-life ([4]; female rats): 2.2 h
half-life ([4]; male rats): 3.1 h
Tariquidar detection in CSF samples ([4]; rats, limit of detection 50 ng/mL for CSF): could not be detected
toxicity in rats immediately after ondansetron injection ([5]; tariquidar 15 mg/kg 30 min before ondansetron 10 mg/kg): toxicity
toxicity in rats after ondansetron injection ([5]; tariquidar dose decreased to 7.5 mg/kg, ondansetron 10 mg/kg): eliminating this toxicity
inhibition of Pgp (Pgp [6]): complete inhibition

AUCtissue,0-∞ ([9]; Brain, OT-F: female rats): 19.16 h⋅μg⋅mL^−1
AUCtissue,0-∞ ([9]; Brain, OT-M: male rats): 22.0 h⋅μg⋅mL^−1
AUCtissue,0-∞ ([9]; CSF, OT-F: female rats): 1.49 h⋅μg⋅mL^−1
AUCtissue,0-∞ ([9]; CSF, OT-M: male rats): 1.37 h⋅μg⋅mL^−1
AUCtissue,0-∞ ([9]; Spinal Cord, OT-F: female rats): 15.6 h⋅μg⋅mL^−1
AUCtissue,0-∞ ([9]; Spinal Cord, OT-M: male rats): 15.0 h⋅μg⋅mL^−1
plasma ondansetron concentration in comparison to ondansetron administered alone [10]: almost doubled
k12 Distribution rate constant to peripheral distribution compartment ([11]; Female): 4.37 h⁻¹
k13 Distribution rate constant to brain compartment ([11]; Female): 13.0 h⁻¹
k14 Distribution rate constant to spinal cord compartment ([11]; Female): 3.60 h⁻¹
k15 Distribution rate constant to CSF compartment ([11]; Female): 0.518 h⁻¹
k21 Distribution rate constant from peripheral distribution compartment ([11]; Female): 2.32 h⁻¹
k31 Distribution rate constant from brain compartment ([11]; Female): 25.2 h⁻¹
k35=45 Rate constant for brain/spinal cord and CSF exchange ([11]; Female): 0.914 h⁻¹
k41 Distribution rate constant from spinal cord compartment ([11]; Female): 31.5 h⁻¹
k51 Distribution rate constant from CSF compartment ([11]; Female): 47.3 h⁻¹
k53=54 Rate constant for brain/spinal cord and CSF exchange ([11]; Female): 79.9 h⁻¹
kPgp,TRQ Rate constant for Pgp-mediated efflux from the CNS for OT animals ([11]; Female): 0.0001 h⁻¹
kPgp Rate constant for Pgp-mediated efflux from the CNS ([11]; Female): 101 h⁻¹
k12 Distribution rate constant to peripheral distribution compartment ([11]; Male): 2.14 h⁻¹
k13 Distribution rate constant to brain compartment ([11]; Male): 17.6 h⁻¹
k14 Distribution rate constant to spinal cord compartment ([11]; Male): 9.37 h⁻¹
k15 Distribution rate constant to CSF compartment ([11]; Male): 0.081 h⁻¹
k21 Distribution rate constant from peripheral distribution compartment ([11]; Male): 2.62 h⁻¹
k31 Distribution rate constant from brain compartment ([11]; Male): 39.6 h⁻¹
k35=45 Rate constant for brain/spinal cord and CSF exchange ([11]; Male): 0.928 h⁻¹
k41 Distribution rate constant from spinal cord compartment ([11]; Male): 71.0 h⁻¹
k51 Distribution rate constant from CSF compartment ([11]; Male): 6.84 h⁻¹
k53=54 Rate constant for brain/spinal cord and CSF exchange ([11]; Male): 66.6 h⁻¹
kPgp,TRQ Rate constant for Pgp-mediated efflux from the CNS for OT animals ([11]; Male): 0.002 h⁻¹
kPgp Rate constant for Pgp-mediated efflux from the CNS ([11]; Male): 81.9 h⁻¹
Vd ([11]; female, Sprague Dawley, with tariquidar (co-administered), read-out: V1,TRQ Central volume of distribution): 0.0113 L
k el ([11]; female, Sprague Dawley, with tariquidar (co-administered), read-out: kel,TRQ Systemic elimination rate constant for OT animals (converted)): 0.000839 s⁻¹
Vd ([11]; female, read-out: V1 Central volume of distribution): 0.0133 L
k el ([11]; female, read-out: kel Systemic elimination rate constant (converted)): 0.00141 s⁻¹
Vd ([11]; male, Sprague Dawley, with tariquidar (co-administered), read-out: V1,TRQ Central volume of distribution): 0.0127 L
k el ([11]; male, Sprague Dawley, with tariquidar (co-administered), read-out: kel,TRQ Systemic elimination rate constant for OT animals (converted)): 0.000939 s⁻¹
Vd ([11]; male, read-out: V1 Central volume of distribution): 0.0175 L
k el ([11]; male, read-out: kel Systemic elimination rate constant (converted)): 0.001 s⁻¹
Structure (SMILES): Cc1nccn1CC1CCc2c(c3ccccc3n2C)C1=O (stereo not shown) [Ondansetron, Ondansetron hydrochloride]
KP_KO ([7]; Brain, female Pgp knockout rats): 3.04
KP_WT ([7]; Brain, female wild type rats): 0.71
KP_KO ([7]; Brain, male Pgp knockout rats): 2.52
KP_WT ([7]; Brain, male wild type rats): 0.46
KP_KO ([7]; CSF, female Pgp knockout rats): 0.22
KP_WT ([7]; CSF, female wild type rats): 0.11
KP_KO ([7]; CSF, male Pgp knockout rats): 0.19
KP_WT ([7]; CSF, male wild type rats): 0.06
KP_KO ([7]; Spinal Cord, female Pgp knockout rats): 1.34
KP_WT ([7]; Spinal Cord, female wild type rats): 0.47
KP_KO ([7]; Spinal Cord, male Pgp knockout rats): 1.78
KP_WT ([7]; Spinal Cord, male wild type rats): 0.39
effect of intrathecal administration in a neuropathic animal model [8]: dose-dependent antinociceptive effect
